Test results published in the NIST ThermoML archive (doi:10.1021/je8002095).

What was measured:
[1] = for kinematic viscosity / mass density / speed of sound: 101.33 kPa, Liquid
[2] = refractive index (Na D-line) (dimensionless); settings: 101.33 kPa, Liquid
[3] = molar heat capacity at constant pressure; settings: 101.33 kPa, Liquid, differential scanning calorimeter

CCCCCCCC[n+]1cccc(C)c1.F[B-](F)(F)F [N-octyl-3-methylpyridinium tetrafluoroborate]
Settings | kinematic viscosity, [1] [m2/s] | mass density, [1] [kg/m3] | molar heat capacity at constant pressure, [3] [J/K/mol] | refractive index, [2] | speed of sound, [1] [m/s] | surface tension liquid-gas, [1] [mN/m]
278.15 K | 0.00248 | 1106.4 | 433.8 | – | 1571.9 | 39.82
280.65 K | 0.00193 | 1105 | 435.7 | – | 1564.9 | 39.28
283.15 K | 0.00154 | 1103.6 | 437.4 | 1.45978 | 1557.7 | 38.7
285.65 K | 0.00123 | 1102.1 | 439.4 | 1.45907 | 1549.2 | 38.3
288.15 K | 0.00102 | 1100.7 | 441.4 | 1.45835 | 1541.2 | 37.91
290.65 K | 0.000817 | 1099.4 | 443.7 | 1.45764 | 1533.5 | 37.52
293.15 K | 0.000681 | 1097.7 | 446.1 | 1.45691 | 1526.3 | 37.19
295.65 K | 0.000558 | 1096.3 | 448.4 | 1.4562 | 1518.7 | 36.81
298.15 K | 0.000462 | 1094.5 | 450.5 | 1.45547 | 1511.4 | 36.51
300.65 K | 0.000388 | 1093.3 | 452.8 | 1.45477 | 1505.4 | 36.23
303.15 K | 0.000327 | 1091.5 | 455 | 1.45405 | 1498.1 | 35.94
305.65 K | 0.00028 | 1089.7 | 457.2 | 1.45333 | 1491.2 | 35.67
308.15 K | 0.000238 | 1088.1 | 459.2 | 1.45261 | 1484.6 | 35.46
310.65 K | 0.000205 | 1086.3 | 461.3 | 1.4519 | 1478.1 | 35.22
313.15 K | 0.000177 | 1084.7 | 463.3 | 1.45121 | 1472.3 | 35.02
315.65 K | 0.000156 | 1083.1 | 465.1 | 1.45047 | 1465.7 | 34.81
318.15 K | 0.000136 | 1081.4 | 467 | 1.44976 | 1459.3 | 34.63
320.65 K | 0.000119 | 1079.8 | 468.7 | 1.44903 | 1453.2 | 34.46
323.15 K | 0.000105 | 1078.3 | 470.3 | 1.44831 | 1446.5 | 34.28
325.65 K | 9.27e-05 | 1076.5 | 472 | 1.4476 | 1440.4 | 34.13
328.15 K | 8.22e-05 | 1074.9 | 473.7 | 1.4469 | 1433.6 | 33.98
